These results are taken from the RepoRT retention time repository.

Structures are written as SMILES.

A short description of the data set: Waters SunFire C18, 150 × 2.1 mm, 3.5 µm, 25 °C, 0.25 mL/min, estimated dead time 1.3 min; A: water + 0.1% formic acid; B: methanol; gradient (min/%B) 0/5 30/100. Conditions: stereoisomer not certain.
As for `OC1OCC=C2CN3CCC45c6ccccc6NC4C1C2CC35` (stereo not given), the LC retention time is 9.62 min. The same measure for `CCC1CC2CC3c4[nH]c5cc(OC)ccc5c4CCN(C2)C13` (stereo not given): 18.6 min. The same measure for `CC=C1CN2C3CC1C(C=O)C2Cc1c3[nH]c2ccccc12` (stereo not given): 14.7 min; for `CC=C1CN2CCC34c5cc(-c6cc7c(cc6OC)C68CCN9CC(=CC)C(CCC96N7C)C8C(=O)OC)c(OC)cc5N(C)C3C2CC1C4C(=O)OC` (stereo not given): 16.9 min; for `CC1OCC2C3CC4(O)N(CCC45c4ccccc4N(C(=O)CO)C25)CC13` (stereo not given): 11.8 min. As to `CCC1(O)CC23CC4N(CCC45C(=C2C(=O)OC)Nc2ccccc25)C13` (stereo not given), the LC retention time is 14.8 min.

On to `CC=C1CN2C3CC1C1(C(=O)OC)C2CC2(c4ccccc4N(C)C32)C1O` (stereo not given), for which the LC retention time was 12 min. The same measure for `CCC1CC2CN3CCc4c([nH]c5cc(OC)c(OC)cc45)C(C(=O)OC)(C2)C13` (stereo not given): 16.3 min; for `COc1cc2c(cc1OC)C13CCN(C)CC45OC4COC4CC(=O)N2C1C4C5CC3=O` (stereo not given): 10.1 min. Consider `CC=C1CN2CCC34c5cc(O)ccc5N(C)C35OCC4(C(=O)OC)C1CC25` (stereo not given), for which the LC retention time is 14.3 min. For `CC=C1CN2C(C3C(=O)N4c5ccccc5C56CCN7CC8=CCOC3C(C8CC75)C46)CC34c5ccccc5N5C(=O)C=CC(C1CC23)C54` (stereo not given), the LC retention time is 16.3 min. As to `CCC12C=CCN3CCC4(C(=C(C(=O)OC)C1)Nc1cc(O)c(C5C=CC6(CC)CC(C(=O)OC)=C7Nc8c(O)cccc8C78CCN5C68)cc14)C32` (stereo not given), the LC retention time is 16.7 min.

With `COc1ccc2c(c1)N1C(=O)CC3OCC=C4CN5CCC26C5CC4C3C16` (stereo not given), the LC retention time is 16.8 min. Turning to `CCC1CN2CCc3c([nH]c4ccccc34)C2CC1CC1NCCc2c1[nH]c1ccccc21` (stereo not given), the LC retention time was 16.6 min.

For `CCC1CN2CCc3c([nH]c4ccccc34)C2CC1CC=O` (stereo not given), the LC retention time was 14.4 min. Consider `CC=C1C[n+]2ccc3c([nH]c4ccccc43)c2CC1C1=CN2c3ccccc3C34CCN5CC(=CC)C(CC53)C(C1O)C24` (stereo not given), for which the LC retention time is 15.2 min.

As to `C=CC1CN2CCc3c([nH]c4ccccc34)C2CC1CCO` (stereo not given), the LC retention time was 13.7 min.

Consider `CCC1NC2CC3(C(=O)N(OC)c4cc(OC)ccc43)C3CC1C2CO3` (stereo not given), for which the LC retention time is 16.3 min. `CC=C1CN2C3CC1C(C1OCC4C5CC6N(CCC67c6ccccc6N1C47)CC5CC)C2Cc1c3[nH]c2ccccc12` (stereo not given): the LC retention time was 13.8 min. `CCC1CC2CC3c4[nH]c5ccc(OC)cc5c4CCN(C2)C13` (stereo not given): the LC retention time was 13.6 min. Then `COC(=O)C1C2CC3c4[nH]c5cc(OC)ccc5c4CCN3CC2CC(OC(=O)c2cc(OC)c(OC)c(OC)c2)C1OC` (stereo not given), with 21.9 min; and `CC=C1CN2C3CC45c6ccccc6NC4(O3)C2CC1C5(COC(C)=O)C(=O)OC` (stereo not given), with 17.3 min. For the compound `CCC1C2CCN3CCC4(C(=C2C(=O)OC)Nc2ccccc24)C13` (stereo not given), the LC retention time is 13.7 min. Turning to `CCC1CN2CCc3c([nH]c4cc(OC)c(OC)cc34)C2CC1CCO` (stereo not given), the LC retention time was 16.6 min. Take `CC=C1CN2C3CC1C1(C(=O)OC)C2CC2(c4ccccc4N(C)C32)C1OC(=O)C=Cc1cc(OC)c(OC)c(OC)c1` (stereo not given): the LC retention time is 17.8 min.

On to `CC=C1CN(C)C2Cc3c([nH]c4ccccc34)C(c3ccc4c(CCN)c[nH]c4c3)CC1C2C(=O)OC` (stereo not given), for which the LC retention time was 12.6 min.

For `CCC12CCCN3CCc4c(n(c5ccccc45)C(O)(C(=O)OC)C1)C32` (stereo not given), the LC retention time is 20 min. For `COC(=O)C1CC23CCC[N+]4([O-])CCC5(c6ccccc6N(C(=O)OC)C15CC2)C34` (stereo not given), the LC retention time is 17.2 min. Take `CCC1=C(CC(=O)OC)C(OC)(c2nccc3c2[nH]c2ccccc23)OC1=O` (stereo not given): the LC retention time was 27 min. In the case of `CC=C1C[n+]2ccc3c([nH]c4ccccc43)c2CC1CCO` (stereo not given), the LC retention time was 16.7 min. On to `CC=C1CN2C(C3=CC4C5CC6N(CCC67c6ccccc6N(C3=O)C47)CC5=CC)CC34c5ccccc5N5C(=O)CC=C(C1CC23)C54` (stereo not given), for which the LC retention time is 16 min. As for `COC(=O)C1=COC(C)C2Cn3ccc4c5ccccc5nc-4c3CC12` (stereo not given), the LC retention time was 13.2 min. Then `CC=C1C2CC[N+]3([O-])CCC4(C(=C2C(=O)OC)Nc2ccccc24)C13` (stereo not given), with 15.3 min.

In the case of `CCC1=CC2CN3CCc4c([nH]c5ccccc45)C(C(=O)OC)(C2)C13` (stereo not given), the LC retention time was 16.1 min. The same measure for `CC=C1C[N+]2([O-])CCC34Cc5cc6c(cc5OC35C2CC1C(C(=O)OC)N5c1ccccc14)NC12CCC3(CC)CCC[N+]1(CCC62O)C3` (stereo not given): 13.4 min; for `CC=C1CN2CCC3(O)c4ccccc4N4C=C(C(=O)OC)C1CC2C43O` (stereo not given): 16.5 min. The same measure for `C=CC1CN2CCC1CC2C(O)c1ccnc2ccc(OC)cc12` (stereo not given): 13.7 min. For `CC=C1CN2CCc3c([nH]c4ccccc34)C2CC1C(C=O)C(=O)OC` (stereo not given), the LC retention time is 18.3 min.

As to `C=C1c2[nH]c3ccccc3c2CN2CCC1C(=CC)C2` (stereo not given), the LC retention time is 9.26 min. Turning to `COC(=O)C1C2CC3c4[nH]c5cc(OC)ccc5c4CCN3CC2CC(O)C1OC` (stereo not given), the LC retention time is 16.1 min. Then `C=C1C2CC(=O)c3[nH]c4ccccc4c3C1N(C)CC2=CC` (stereo not given), with 14.2 min; and `CC=C1CN(C)CC2Cc3c([nH]c4ccccc34)C(=O)CC12` (stereo not given), with 14.3 min. The same measure for `CCC1CN2CCc3c([nH]c4ccccc34)C2CC1CCO` (stereo not given): 14.1 min. For `CC=C1CN(C)CCC23C(=O)CC1C1COC(OC)C(=O)N(c4ccccc42)C13` (stereo not given), the LC retention time is 16 min. In the case of `COC(=O)C1CC23CCCN4C(=O)CC5(c6ccccc6N(C)C15CC2)C43` (stereo not given), the LC retention time is 15.1 min. For `COc1cc2c(cc1OC)C13CCN(C)CC4=CCOC5CC(=O)N2C1C5C4CC3=O` (stereo not given), the LC retention time was 13.1 min.

Consider `C=CC1CN2CCc3c([nH]c4ccc(O)cc34)C2CC1CC1c2[nH]c3ccccc3c2CCN1C` (stereo not given), for which the LC retention time is 13.6 min.

For the compound `CC=C1CN2C3CC45c6ccccc6N(C)C4C2CC1C3C5OC(=O)c1cc(OC)c(OC)c(OC)c1` (stereo not given), the LC retention time was 22.6 min. Consider `CC=C1CN2C3CC1C(CO)(C(=O)OC)C2Cc1c3[nH]c2ccccc12` (stereo not given), for which the LC retention time was 12.9 min. Take `CC=C1CN2C3CC1C1(C(=O)OC)C2CC2(c4ccccc4NC32)C1O` (stereo not given): the LC retention time was 14.9 min. Consider `CCC12CC34CC(C(=O)OC)=C5Nc6ccccc6C56CCN3C1C1CC3(CC)C5OC5CN5CCC7(c8ccccc8N(C64)C17O2)C53` (stereo not given), for which the LC retention time was 25.8 min. The same measure for `CC=C1CN2C(C3C(=O)N4c5ccccc5C56CCN7CC8=CCOC3C(C8CC75)C46)CC34c5ccccc5N5C(=O)CC=C(C1CC23)C54` (stereo not given): 15.6 min; for `COc1ccc2[nH]c3c(c2c1)CCN1CC2CC3C1C(C(C)O)C2` (stereo not given): 14.9 min; for `CCC1CN2CCc3c([nH]c4ccccc34)C2CC1C(=COC)C(=O)OC` (stereo not given): 16.8 min. Then `CCC12C=CCN3CCc4c(n(c5ccccc45)C(O)(C(=O)OC)C1)C32` (stereo not given), with 13 min; and `C=CC1CN2CCc3c([nH]c4ccccc34)C2CC1CC1c2[nH]c3ccccc3c2CCN1C` (stereo not given), with 14.8 min.

As to `CC=C1CN2CCc3c4n(c5ccccc35)C(C(=O)OC)C1CC42` (stereo not given), the LC retention time is 17.5 min.

For `CC=C1CN2C3CC1C1(C(=O)OC)C2CC2(c4cc(O)ccc4N(C)C32)C1OC(=O)c1cc(OC)c(OC)c(OC)c1` (stereo not given), the LC retention time is 15.8 min. Turning to `O=C1CC(O)C2C3CC4N(CCC45c4ccccc4N1C25)CC3=CCO` (stereo not given), the LC retention time is 10.1 min.

Regarding `CC=C1C[N+]2(C)CCc3c4n(c5ccccc35)C(CO)C1CC42` (stereo not given), the LC retention time was 14.8 min.

For the compound `CCC12CC(C(=O)OC)=C3Nc4ccccc4C34CCN(C(c3ccc5c(c3)C3CCN6CC7OC7C7(CC)CCC3(N5)C67)C3OC31)C42` (stereo not given), the LC retention time was 16 min. Regarding `CC=C(C=O)C1CC2c3c(c4ccccc4n3C(O)C1)CCN2C` (stereo not given), the LC retention time is 16.1 min.

For `CCC1CN2CCC34C5=C(CC6(CC7CC(CC)N8CCC9(C6=Nc6ccccc69)C78)CN5c5ccccc53)C1CC24` (stereo not given), the LC retention time was 16.3 min. With `C=CC1C(OC2OC(CO)C(O)C(O)C2O)OC=C(C(=O)OC)C1CC1NCCc2c1[nH]c1ccccc21` (stereo not given), the LC retention time was 17 min. In the case of `CC=C1CN2CCC34c5ccccc5N5C(C(=O)OC)C1CC2C53OC(=O)c1c4ccc(O)c1O` (stereo not given), the LC retention time is 19.6 min.

Regarding `CCC1CN2CCC3(C(=O)Nc4ccccc43)C2CC1C(=COC)C(=O)OC` (stereo not given), the LC retention time is 16.4 min.

`COc1cc2c(cc1OC)C13CCN4CC5=CCOC6CC(=O)N2C1C6C5CC43` (stereo not given): the LC retention time was 12.9 min.

`C=CC1CN2CCC3(C(=O)Nc4cc(O)ccc43)C2CC1CC1c2[nH]c3ccccc3c2CCN1C` (stereo not given): the LC retention time is 11.9 min. Regarding `C=CC1CN2CCC1CC2c1[nH]c2ccccc2c1CCO` (stereo not given), the LC retention time is 16.7 min. For `C=CC1CN2CCC3(C(=O)Nc4c3ccc(O)c4C3CCCN3C)C2CC1CC1c2[nH]c3ccccc3c2CCN1C` (stereo not given), the LC retention time was 8.71 min.
